pEC50: −log10 of the molar value.
Molecular target: T1, GPR109B (Homo sapiens, UniProt P49019)
T1 construct: gene HCAR3
T1 sequence (P49019 whole entry): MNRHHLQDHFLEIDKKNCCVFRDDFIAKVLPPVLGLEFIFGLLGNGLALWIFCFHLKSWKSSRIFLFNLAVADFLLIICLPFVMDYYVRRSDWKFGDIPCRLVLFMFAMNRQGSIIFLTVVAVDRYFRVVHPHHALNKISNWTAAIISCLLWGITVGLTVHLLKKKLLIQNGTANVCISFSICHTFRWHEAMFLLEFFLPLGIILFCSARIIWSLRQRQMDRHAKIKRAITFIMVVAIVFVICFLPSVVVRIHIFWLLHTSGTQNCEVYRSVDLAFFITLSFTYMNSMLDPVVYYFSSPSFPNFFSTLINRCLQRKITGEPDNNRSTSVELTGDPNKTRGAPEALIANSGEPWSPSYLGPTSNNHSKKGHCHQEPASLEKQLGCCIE

In the case of `O=C(O)c1cccnc1` [nicotinic acid], the pEC50 was 4.60.

Reference: PMC3105069, “Nicotinic Acid Receptor Abnormalities in Human Skin Cancer: Implications for a Role in Epidermal Differentiation” (PLoS ONE, 2011)
